Measurements taken from US12324858B2, “Pharmaceutical formulation and system and method for delivery” (Rilento Pharma, LLC, priority 2018, dated 2025).
“Also recorded” adds a separate entry of the source. Where a name gives a salt, the structure may show the parent alone.

Columns and labels:
[1] = Background UV spectra of individual ingredients in pH-2 water; type: physicochemical
Text: Using the same instrument parameters and cuvettes, spectra were also acquired for each individual ingredient in the mixtures for the purpose of determining background contributions to the overall absorbance spectra that were obtained for the fully formulated mixtures. […] In this way, the background experiments were representative of the highest degree of spectral background contribution that might be potentially observed for the fully formulated devices if the devices were to completely disintegrate and dissolve during the water-soak experiment.
BUP-HCl is known to be a strong chromophore with a documented UV absorption maximum at 262 nm (Corciova, A., Eur. Chem. Bull., 2012, 2(8), 554-557).

[2] = Suspension test of candidate liquids with GLBG (gelation); type: physicochemical; conditions: for Gelation of GLBG suspended in the liquid: 2/1 w/w liquid to GLBG, monitoring window 0-24 and 0-48 hours; for Suitable for use in a hydrophilic device / Suitable for use in a hydrophobic device: suspension test with GLBG
Protocol: The suspensions are then qualitatively monitored as a function of time for physical changes, such as the onset of gelation, by using any one of a variety of possible qualitative or quantitative techniques. Note that other liquid to gelatin ratios can also be employed, including ratios that are intended for use in various end-applications. […] Monitoring times of suspensions can include various time points after the suspensions are mixed, including for example, 5 minutes after mixing, 0.5 hours after mixing, 1 hour after mixing, 5 hours after mixing, 24 hours after mixing, 48 hours after mixing, 1 week after mixing, 1 month after mixing, 6 months after mixing, 1 year after mixing, and even 2 to 5 years after mixing. […] Of course, quantitative measurements can also be employed if so desired (e.g., Brookfield viscosity, parallel plate dynamic mechanical techniques, etc.). […] Conversely, if there are signs of gelation, including for example, any one or more of the following responses before the end of the monitoring time window: 1) development of elastic recovery; 2) visualization of permanent coalescence of gelatin particulates; or 3) solid network formation with loss of pourability, then these liquids are by definition excluded as candidates for use in more hydrophobic formulations, and are instead considered as candidate liquids for use in preparing more hydrophilic formulations. […] A spatula was used to stir the ingredients to create a suspension. The suspensions were then allowed to set under static conditions and were qualitatively monitored as a function of time. Results at t=5 minutes after mixing, t=0.5 hours after mixing, t=5 hours after mixing, t=24 hours after mixing, and at t=48 hours after mixing were reported. The tests were conducted at 20 degrees C. with one exception, one of the tests was conducted at 27 degrees C. to ensure that the carrier was above its melt point and in its liquid state.

[3] = mineral oil estimated, cited from earlier work; for HANtotal: Hansen Solubility Parameter, total; for HAN δDispersion / HAN δH-bonding / HAN δPolar: Hansen

| Compound | Gelation of GLBG suspended in the liquid [2] | Suitable for use in a hydrophilic device [2] | Suitable for use in a hydrophobic device [2] | HAN δDispersion [3] | HAN δH-bonding [3] | HAN δPolar [3] | other results |
| --- | --- | --- | --- | --- | --- | --- | --- |
| CCCCN1CCCCC1C(=O)Nc1c(C)cccc1C (stereo not shown) [BUP free base, bupivacaine] |  |  |  |  |  |  | Relative Absorbance at 270 nm at t = 24 hrs. ([1]; individual ingredient in pH-2 water, background UV spectrum): > or = 4 (i.e.,; Solubility in water ([1]; water): low solubility in water |
| CCCCN1CCCCC1C(=O)Nc1c(C)cccc1C (stereo not shown) [BUP-HCl, bupivacaine] |  |  |  |  |  |  | Solubility in pH-2 water ([1]; mildly acidic conditions, pH-2 water (dilute HCl)): completely soluble under these conditions |
| OCC(O)CO [Glycerin] | lead to gelation of gelatin | Yes | No |  |  |  | Gelation of GLBG suspended in the liquid ([2]; listed as glycerin): work time window prior to the onset of gelation was observed to be significantly longer |
| OCC(O)CO [Glycerol] |  |  |  | 17.4 MPa^1/2 | 29.3 MPa^1/2 | 12.1 MPa^1/2 | HANtotal [3]: 36.2 MPa^1/2; HSP ([3]; Hildebrand Solubility Parameter): 33.8 MPa^1/2 |
| CCCCCCCC(=O)OCC(COC(=O)CCCCCCC)OC(=O)CCCCCCC [caprylic triglyceride] | no signs of gelation | No | Yes | 16.2 MPa^1/2 | 4 MPa^1/2 | 3.4 MPa^1/2 | HANtotal [3]: 17.0 MPa^1/2 |
| CCCCCCCCCCCCCCCC(=O)OC(C)C [isopropyl palmitate] | no signs of gelation | No | Yes |  |  |  |  |
| water | lead to gelation of gelatin; also recorded: gelation and elastic network formation was observed to begin almost immediately | Yes | No | 15.5 MPa^1/2 | 42.4 MPa^1/2 | 16.0 MPa^1/2 |  |
